Source: patent US6908942B2, “6-amino-2,2-dimethyl-3,4,6-trisubstituted benzopyran derivatives and their construction by parallel synthesis on solid-phase” (Korea Research Institute of Chemical Technology, priority 2002, dated 2005)
pIC50: −log10 of the molar value.

The molecules below were run on lipid peroxidation induced by iron (assay: Inhibitory effect on iron-induced lipid peroxidation in rat brain homogenate (MDA measurement, N-methyl-2-phenylindole, Bioxytech LPO-586 Kit)). Settings: FeCl2 400 μM, 30 min at 37° C., decrease of MDA vs DMSO control, absorption at 586 nm.
Type: biochemical
Protocol: The inhibitory effect of the present compounds on lipid peroxidation induced by iron was evaluated as follows:
Rat brain was homogenized in Krebs buffer (15 mM HEPES, 10 mM glucose, 140 mM NaCl, 3.6 mM KCl, 1.5 mM CaCl2, 1.4 mM KH2PO4 and 0.7 mM MgCl, pH 7.4) and centrifuged at 12,000 rpm to obtain the supernatant serving as a raw material of lipid. To the brain homogenates, FeCl^2 was added to give a final concentration of 400 μM and allowed to stand for 30 min at 37° C. for promoting oxidation. Each of the compounds to be tested was added to give a concentration of 12.5 μM and a control group was solely added with dimethylsulfoxide (DMSO).
When iron is added to brain homogenates, oxidation is promoted to increase the amount of malondialdehyde (MDA) as lipid peroxidation product. Therefore, in this Example, the level of lipid peroxidation was evaluated according to MDA measurement method. In general MDA measurement, the test sample is reacted with TBA (2-thiobarbituric acid) and the absorbance at 530 nm was measured. However, since such process includes a boiling step, it is unsuitable for dealing with test samples in large quantity. Therefore, in this Example, N-methyl-2-phenylindole was used as a color developing reagent in place of TBA so as to avoid boiling step. […] The inhibitory effect on lipid peroxidation of test compounds was evaluated by calculating the decreased level of MDA in percentage based on the amount of MDA in the control group. For the test compounds showing more than 80% inhibitory effect, the concentration-lipid peroxidation inhibition curves were plotted with reference to the decrease rate of MDA amount based on the amount of MDA in the control group and their IC50 values was calculated through least linear regression analysis.
In addition, the representative antioxidants commercialized such as Promethazine, Trolox, Probucol and N-propyl gallate were examined in terms of 50% inhibition concentration (IC50) according to the above procedure and the results are shown in Table 4.

Point of comparison: `CCOC1c2cc(NCc3ccc(F)cc3)ccc2OC(C)(C)C1OCc1ccccc1Cl` (stereo not shown) [Compound 5-470], pIC50 5.38. Against it:
- CNc1ccc2c(c1)C(OCCC1CCCCC1)C(OCc1cccc(F)c1)C(C)(C)O2 (stereo not shown) [Compound 5-100] — within 0.2 log units, 5.41
- COC1C(OCc2ccccc2)c2cc(NCc3ccccc3)ccc2OC1(C)C (stereo not shown) [Compound 5-300] — 0.49 log units higher, 5.87
- CC(CN1c2ccccc2Sc2ccccc21)N(C)C (stereo not shown) [Promethazine, reference compound] — 0.39 log units lower, 4.99
- CCCCOC1c2cc(NC)ccc2OC(C)(C)C1OC(=O)c1ccco1 (stereo not shown) [Compound 5-1520] — within 0.2 log units, 5.51
- CCOC1c2cc(NCc3ccc(F)cc3)ccc2OC(C)(C)C1OCc1cccc(F)c1 (stereo not shown) [Compound 5-468] — within 0.2 log units, 5.37
- COC1c2cc(NCc3ccc(F)cc3)ccc2OC(C)(C)C1OC(=O)c1ccco1 (stereo not shown) [Compound 5-1770] — within 0.2 log units, 5.51
- CCCCOC1c2cc(NC)ccc2OC(C)(C)C1OCc1ccccc1 (stereo not shown) [Compound 5-49] — within 0.2 log units, 5.55
- CNc1ccc2c(c1)C(OCCC1CCCCC1)C(OCc1ccc3ccccc3c1)C(C)(C)O2 (stereo not shown) [Compound 5-106] — within 0.2 log units, 5.26
- CCCOC(=O)c1cc(O)c(O)c(O)c1 [N-propyl gallate, reference compound] — 0.78 log units lower, 4.60
- C/C=C/COC1C(OCc2ccccc2)c2cc(NC)ccc2OC1(C)C (stereo not shown) [Compound 5-78] — 0.56 log units higher, 5.94
- CNc1ccc2c(c1)C(OC)C(OC(=O)c1cccs1)C(C)(C)O2 (stereo not shown) [Compound 5-1489] — within 0.2 log units, 5.48
- COC1c2cc(NCc3ccc(C)cc3)ccc2OC(C)(C)C1OCc1cccc(F)c1 (stereo not shown) [Compound 5-564] — within 0.2 log units, 5.36
- COC1c2cc(NCc3ccc(C)cc3)ccc2OC(C)(C)C1OC(=O)C=C(C)C (stereo not shown) [Compound 5-1834] — 0.51 log units higher, 5.89
- CC1(C)Oc2ccc(NCc3ccccc3)cc2C(OCc2ccccc2)C1OCc1ccccc1 (stereo not shown) [Compound 5-289] — 0.50 log units higher, 5.88
- CC1(C)Oc2ccc(NCc3ccccc3)cc2C(OCCc2ccccc2)C1OCc1ccc(F)cc1 (stereo not shown) [Compound 5-306] — within 0.2 log units, 5.39
- C/C=C/COC1C(OCCc2ccccc2)c2cc(NCc3ccccc3)ccc2OC1(C)C (stereo not shown) [Compound 5-318] — within 0.2 log units, 5.28
- CCCCCOC1C(OCc2ccccc2)c2cc(NC)ccc2OC1(C)C (stereo not shown) [Compound 5-77] — 0.22 log units higher, 5.60
- CC(C)(Sc1cc(C(C)(C)C)c(O)c(C(C)(C)C)c1)Sc1cc(C(C)(C)C)c(O)c(C(C)(C)C)c1 [Probucol, reference compound] — 0.64 log units lower, 4.74
- CC1(C)Oc2ccc(NCc3ccccc3)cc2C(OCCc2ccccc2)C1OCc1ccccc1Cl (stereo not shown) [Compound 5-310] — 0.58 log units higher, 5.96
- CCCCCOC1C(OCC)c2cc(NCc3ccc(F)cc3)ccc2OC1(C)C (stereo not shown) [Compound 5-477] — within 0.2 log units, 5.44
- CC1(C)Oc2ccc(NCc3ccc(F)cc3)cc2C(OCc2ccccc2)C1OCc1ccc(F)cc1 (stereo not shown) [Compound 5-514] — 0.24 log units higher, 5.62
- CC1(C)Oc2ccc(NCc3ccc(F)cc3)cc2C(OCc2ccccc2)C1OC(=O)c1ccc(F)cc1 (stereo not shown) [Compound 5-1808] — within 0.2 log units, 5.40
- CCCCOC1c2cc(NC)ccc2OC(C)(C)C1OC(=O)c1ccccc1 (stereo not shown) [Compound 5-1515] — 0.27 log units higher, 5.65
- COC1c2cc(NCc3ccc(C)cc3)ccc2OC(C)(C)C1OC(=O)c1cccs1 (stereo not shown) [Compound 5-1839] — 0.59 log units higher, 5.97
- C=CCOC1C(OCCCC)c2cc(NCc3ccc(F)cc3)ccc2OC1(C)C (stereo not shown) [Compound 5-511] — 1.54 log units higher, 6.92
- CCNc1ccc2c(c1)C(OC)C(OC(=O)c1ccc(F)cc1)C(C)(C)O2 (stereo not shown) [Compound 5-1558] — within 0.2 log units, 5.47
- COc1ccc(C(=O)OC2C(OC)c3cc(NCc4ccc(F)cc4)ccc3OC2(C)C)cc1 (stereo not shown) [Compound 5-1767] — 0.20 log units higher, 5.58
- Cc1c(C)c2c(c(C)c1O)CCC(C)(C(=O)O)O2 (stereo not shown) [Trolox, reference compound] — 0.77 log units lower, 4.61
- CC1(C)Oc2ccc(NCc3ccccc3)cc2C(OCCc2ccccc2)C1OCc1ccccc1Cl (stereo not shown) [Compound 5-311] — 0.54 log units higher, 5.92
- CNc1ccc2c(c1)C(OCCC1CCCCC1)C(OCc1cccc(Cl)c1)C(C)(C)O2 (stereo not shown) [Compound 5-103] — within 0.2 log units, 5.29
- C#CCOC1C(OCc2ccccc2)c2cc(NC)ccc2OC1(C)C (stereo not shown) [Compound 5-80] — 0.59 log units higher, 5.97
- CCNc1ccc2c(c1)C(OCC)C(OC(=O)c1ccc(F)cc1)C(C)(C)O2 (stereo not shown) [Compound 5-1568] — within 0.2 log units, 5.39
- C#CCOC1C(OC)c2cc(NCc3ccc(F)cc3)ccc2OC1(C)C (stereo not shown) [Compound 5-464] — within 0.2 log units, 5.42
- CNc1ccc2c(c1)C(OCc1ccccc1)C(OCc1cccc(Cl)c1)C(C)(C)O2 (stereo not shown) [Compound 5-71] — 0.39 log units higher, 5.77
- Cc1ccc(C(=O)OC2C(OCc3ccccc3)c3cc(NCc4ccc(F)cc4)ccc3OC2(C)C)cc1 (stereo not shown) [Compound 5-1806] — within 0.2 log units, 5.23
- CCOC1c2cc(NCc3ccc(F)cc3)ccc2OC(C)(C)C1OCc1ccc(C(C)(C)C)cc1 (stereo not shown) [Compound 5-467] — within 0.2 log units, 5.44
- C/C=C/COC1C(OCCCC)c2cc(NCc3ccc(F)cc3)ccc2OC1(C)C (stereo not shown) [Compound 5-510] — 0.36 log units lower, 5.02
- CCCCOC1c2cc(NC)ccc2OC(C)(C)C1OC(=O)c1ccc(C)cc1 (stereo not shown) [Compound 5-1516] — within 0.2 log units, 5.20
- COC1c2cc(NCc3ccc(F)cc3)ccc2OC(C)(C)C1OC(=O)c1ccc(F)cc1 (stereo not shown) [Compound 5-1768] — within 0.2 log units, 5.56
- CCNc1ccc2c(c1)C(OC)C(OC(=O)CC(C)(C)C)C(C)(C)O2 (stereo not shown) [Compound 5-1552] — within 0.2 log units, 5.27
- C#CCOC1C(OCC)c2cc(NCc3ccc(F)cc3)ccc2OC1(C)C (stereo not shown) [Compound 5-480] — within 0.2 log units, 5.26
- CC1(C)Oc2ccc(NCc3ccc(F)cc3)cc2C(OCc2ccccc2)C1OCc1cccc(Cl)c1 (stereo not shown) [Compound 5-519] — within 0.2 log units, 5.34
- CCCCOC1c2cc(NCc3ccc(F)cc3)ccc2OC(C)(C)C1OC(=O)c1ccco1 (stereo not shown) [Compound 5-1800] — within 0.2 log units, 5.41
- CC1(C)Oc2ccc(NCc3ccccc3)cc2C(OCCc2ccccc2)C1OCc1cccc(F)c1 (stereo not shown) [Compound 5-308] — within 0.2 log units, 5.32
- CCOC1c2cc(NC)ccc2OC(C)(C)C1OCc1cccc(F)c1 (stereo not shown) [Compound 5-68] — 0.48 log units higher, 5.86
